Consider 2 compounds from patent US12606508B2, “Cannabis extracts and uses thereof” (priority 2020, dated 2026).

Read-outs that look alike come from different tables or passages of the source.

The Ki is a dissociation constant, usually derived from enzyme kinetics or from competition with a known ligand. As usually defined, the IC50 is the concentration that gives 50% inhibition.

In one test the target is T1, human CB1 receptor (Homo sapiens, UniProt P21554).
T1 construct: Eurofins Discovery (contract assay)
T1 sequence (P21554 whole entry): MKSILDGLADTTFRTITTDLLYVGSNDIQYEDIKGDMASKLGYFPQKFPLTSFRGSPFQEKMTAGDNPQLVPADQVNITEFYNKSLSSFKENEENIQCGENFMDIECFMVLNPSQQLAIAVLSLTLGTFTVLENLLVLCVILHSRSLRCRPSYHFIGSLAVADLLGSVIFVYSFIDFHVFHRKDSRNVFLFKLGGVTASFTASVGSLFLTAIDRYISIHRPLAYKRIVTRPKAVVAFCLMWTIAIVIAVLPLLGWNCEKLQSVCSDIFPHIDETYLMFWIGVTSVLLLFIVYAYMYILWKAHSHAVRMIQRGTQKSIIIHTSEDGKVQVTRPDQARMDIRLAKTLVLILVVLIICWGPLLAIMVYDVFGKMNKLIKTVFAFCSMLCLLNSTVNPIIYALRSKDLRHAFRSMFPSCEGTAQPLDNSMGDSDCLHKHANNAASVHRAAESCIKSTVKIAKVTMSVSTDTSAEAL
Description: Radioligand binding assay at human CB1 receptor ([^3H]CP55940 displacement, Eurofins Discovery). The conditions noted are these: for Ki: Cheng Prusoff from IC50, [^3H]CP55940 radioligand, read-out: hCB1 Ki; for times more active than (−)-trans-Δ^9-THC against CB1 receptor: comparator Δ^9-THC (Ki=40 nM, literature); for times more active than (−)-trans-Δ^9-THCV against CB1 receptor: comparator Δ^9-THCV (Ki 75.4 nM, literature). As to the method: 2.2.4 Binding affinity at human CB1 and CB2 receptors. The binding affinity of (−)-trans-Δ^9-THCB against purified human CB1 and CB2 receptors was determined in a radioligand binding assay. The capability of the ligand to displace radiolabeled [^3H] […] Binding at CB1 and CB2 Receptors. The binding affinity of (−)-trans-Δ^9-THCB against human CB1 and CB2 receptors was determined in a radioligand binding assay performed by Eurofins Discovery. The compound was tested at ten concentrations, ranging from 1 nM to 30 μM, in duplicate. The compound binding was calculated as a % inhibition of the binding of a radioactively labeled ligand specific for each target. […] The results were expressed as a percent inhibition of control specific binding obtained in the presence of the tested compounds using eq. 1.
(§1) The IC50 values (concentration causing a half-maximal inhibition of control specific binding) were determined by non-linear regression analysis of the competition curves generated with mean replicate values (eq. 2)^55.
(§2) Where Y is the specific binding, A is the left asymptote of the curve, D is the right asymptote f the curve, C is the compound concentration, C50 is the IC50 value and nH is the slope factor. […] The inhibition constants (Ki) were calculated using the Cheng Prusoff equation: […]
3.1.4 Binding affinity at human CB1 and CB2 receptors. […] The binding affinity of (−)-trans-Δ^9-THCP against human CB1 and CB2 receptors was assessed by Eurofins Discovery using a radioligand binding assay. […] Eq. 1 was employed to calculate the percent inhibition of control specific binding obtained in the presence of the tested compounds.
A non-linear regression analysis of the competition curves generated with mean replicate values (eq. 2) was used to calculate the IC50 values (concentration causing a half-maximal inhibition of control specific binding)^51.
Where Y is the specific binding, A is the left asymptote of the curve, D is the right asymptote f the curve, C is the compound concentration, C50 is the IC50 value and nH is the slope factor. […] The inhibition constants (Ki) were determined using the Cheng Prusoff equation (eq. 3):
[formula] • where L is the concentration of the radioligand, and KD is the affinity of the radioligand for the receptor.

The next test has as its target T2, human CB2 receptor (Homo sapiens, UniProt P34972).
T2 construct: Eurofins Discovery (contract assay)
The test can be described thus: Radioligand binding assay at human CB2 receptor ([^3H]WIN 55212-2 displacement, Eurofins Discovery). On the procedure:
2.2.4 Binding affinity at human CB1 and CB2 receptors. The binding affinity of (−)-trans-Δ^9-THCB against purified human CB1 and CB2 receptors was determined in a radioligand binding assay. The capability of the ligand to displace radiolabeled [^3H]
Binding at CB1 and CB2 Receptors. The binding affinity of (−)-trans-Δ^9-THCB against human CB1 and CB2 receptors was determined in a radioligand binding assay performed by Eurofins Discovery. The compound was tested at ten concentrations, ranging from 1 nM to 30 μM, in duplicate. The compound binding was calculated as a % inhibition of the binding of a radioactively labeled ligand specific for each target. […] The results were expressed as a percent inhibition of control specific binding obtained in the presence of the tested compounds using eq. 1.
as §1, §2
3.1.4 Binding affinity at human CB1 and CB2 receptors. […] The binding affinity of (−)-trans-Δ^9-THCP against human CB1 and CB2 receptors was assessed by Eurofins Discovery using a radioligand binding assay. […] Eq. 1 was employed to calculate the percent inhibition of control specific binding obtained in the presence of the tested compounds. […]
Where Y is the specific binding, A is the left asymptote of the curve, D is the right asymptote f the curve, C is the compound concentration, C50 is the IC50 value and nH is the slope factor. […] The inhibition constants (Ki) were determined using the Cheng Prusoff equation (eq. 3): […]

The test system of a further test is CD-1 mice. The test can be described thus: Formalin test in mice. In kind it is in vivo. The settings on record: 3 mg/kg, i.p., 20 min before formalin; n=5. On the procedure: Formalin test in mice. Male CD-1 mice 6-8 weeks (Envigo, Italy), were housed under controlled conditions (12 h light/12 h dark cycle; temperature 20-22 C; humidity 55-60%) with chow and tap water available ad libitum. All surgeries and experimental procedures were approved by the Animal Ethics Committee of University of Campania “L. Vanvitelli” (Naples). Animal care was in compliance with Italian (D.L. 116/92) and European Commission (O.J. of E.C. L358/1 18/12/86) regulations on the protection of laboratory animals. All efforts were made to minimize animal suffering and to reduce the number of animals used. All the experiments were performed in a randomized manner by the same operator blind to pharmacological treatments. Mice weighing 28-32 g were used after 1 week-acclimation period and received formalin (1.25% in saline, 30 μL) in the dorsal surface of one side of the hind-paw. Each mouse, randomly assigned to one of the experimental groups (n=5), was placed in a plexiglass cage and allowed to move freely for 15-20 min. A mirror was placed at a 45° angle under the cage to allow full view of the hind-paws. Lifting, favoring, licking, shaking and flinching of the injected paw were recorded as nocifensive behavior.^61 The total time of the nociceptive response was measured every 5 min for 60 minutes and expressed in min (mean±SEM). Mice received vehicle (0.5% DMSO in saline) or different doses of Δ^9-THCB (2, 3 and 5 mg/kg, i.p.) 20 min before formalin injection alone or in combination with AM251 (0.5 mg/kg, i.p.) or AM630 (1 mg/kg, i.p.). The antagonists were administered 10 min before drugs injection.
Statistics for in vivo experiments. Data are represented as means±standard error of the mean (S.E.M). Statistical analysis of the data was performed by analysis of variance two-way ANOVA followed by Bonferroni post hoc or Dunnett's multiple comparison test. All statistical analyses were performed by using GraphPAD software (San Diego, California). Differences were considered significant at p<0.05.

T2 sequence (P34972 whole entry): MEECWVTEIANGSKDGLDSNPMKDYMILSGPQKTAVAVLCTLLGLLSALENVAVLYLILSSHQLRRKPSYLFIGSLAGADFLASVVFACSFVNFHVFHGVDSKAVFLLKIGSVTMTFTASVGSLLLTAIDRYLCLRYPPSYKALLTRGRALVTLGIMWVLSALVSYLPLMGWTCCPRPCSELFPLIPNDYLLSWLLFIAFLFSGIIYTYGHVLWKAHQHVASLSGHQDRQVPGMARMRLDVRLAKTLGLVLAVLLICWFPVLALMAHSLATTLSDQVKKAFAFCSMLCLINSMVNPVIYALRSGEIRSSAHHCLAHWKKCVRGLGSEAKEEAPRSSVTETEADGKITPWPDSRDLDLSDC

In the case of `CCCCCCCc1cc(O)c2c(c1)OC(C)(C)[C@@H]1CCC(C)=C[C@@H]21` [Δ^9-THCP, (6aR,10aR)-3-heptyl-6,6,9-trimethyl-6a,7,8,10a-tetrahydro-6H-benzo[c]chromen-1-ol], the Ki at human CB1 receptor stood at 1.2 nM; at human CB2 receptor it was 6.2 nM. For the same compound, the “binding affinity to CB1 among the compounds (in words)” value at human CB1 receptor (comparison of alkyl chain homologues) is on record as “highest binding affinity to CB1”. Besides, the “times more active than (−)-trans-Δ^9-THC against CB1 receptor” value is reported as “more than thirty-fold higher” at human CB1 receptor (ratio of Ki) and 33 times on human CB1 receptor (ratio of Ki, listed as (−)-trans-Δ^9-THCP). Moreover, the “times more active than (−)-trans-Δ^9-THCB against CB1 receptor” value on human CB1 receptor (ratio of Ki, comparator Δ^9-THCB (Ki 15 nM)) was determined as 13 times. Moreover, the “times more active than (−)-trans-Δ^9-THCV against CB1 receptor” value on human CB1 receptor (ratio of Ki) worked out at 63 times.
Turning to `CCCCc1cc(O)c2c(c1)OC(C)(C)[C@@H]1CCC(C)=C[C@@H]21` [Δ^9-THCB, (6aR,10aR)-3-butyl-6,6,9-trimethyl-6a,7,8,10a-tetrahydro-6H-benzo[c]chromen-1-ol], the Ki turned out to be 15 nM at human CB1 receptor and 51 nM at human CB2 receptor (Cheng Prusoff from IC50, [^3H]WIN 55212-2 radioligand, read-out: hCB2 Ki). The IC50 amounted to 28 nM at human CB1 receptor (displacement of [^3H]CP55940, ten concentrations 1 nM to 30 μM, duplicate, SD within ±10%, read-out: hCB1 IC50) and 79 nM on human CB2 receptor (displacement of [^3H]WIN 55212-2, ten concentrations 1 nM to 30 μM, duplicate, SD within ±10%, read-out: hCB2 IC50). For the same compound, at human CB1 receptor (ratio of Ki), the “times more active than (−)-trans-Δ^9-THCV against CB1 receptor” value is “five times more active”. In the test with CD-1 mice, the “nociceptive response in formalin test (first phase 0-7 min, second phase 15-60 min)” value is “reduced both first and second phase of formalin test”.
